The values that follow are results of earlier work, collected in patent publication US8633150B2, “Methods for inducing sustained immune response” (TNI Biotech, Inc., priority 2001, dated 2014).

The conditions of data set [1]: Bihari.
The conditions of data set [2]: normal volunteers, HIV positive, and cancer patients; Plotnikoff, et al., 1997.

Read-outs that look alike come from different tables or passages of the source.

With `CSCC[C@H](NC(=O)[C@H](Cc1ccccc1)NC(=O)CNC(=O)CNC(=O)[C@@H](N)Cc1ccc(O)cc1)C(=O)O` [met-enkephalin, methionine enkephalin], the half-life in plasma result in data set [1] (et al., 1991) was “approximately 2 minutes”; in data set [1] (et al., 1991, listed as Met-enkelphalin) it was “approximately two”. Besides, the “toxicity in clinical studies” value in data set [2] is recorded as “no major toxicity”.
